Reference: ChEMBL document CHEMBL3272271, “Folate antagonists. 13. 2,4-Diamino-6-](alpha,alpha,alpha-trifluoro-m-tolyl)thio]quinazoline and related 2,4-diamino-6-[(phenyl- and naphthyl)thio]quinazolines, a unique class of antimetabolites with extraordinary antimalarial and antibacterial effects” (J Med Chem, 1978)
In brackets after ≈: the same amount, converted by molar mass. Activity calls are given as the source filed them. The calls are words filed in the database; no cut-off is given here.

Key:
Plasmodium gallinaceum [1] = experiment: Antimalarial activity against trophozoite-induced Plasmodium gallinaceum infected in white leghorn chicken assessed as increase in mean survival days of host at 20 mg/kg, sc administered 72 hrs after infection relative to control; assay type: functional; conditions: route subcutaneous
Plasmodium gallinaceum [2] = experiment: Antimalarial activity against sporozoite-induced Plasmodium gallinaceum infected in white leghorn chicken assessed as disease cure from parasite infection at 60 mg/kg, sc administered 72 hrs after infection; assay type: functional, organism-based; set-up: dose 60 mg/kg
Plasmodium berghei [3] = experiment: Antimalarial activity against Plasmodium berghei infected in mouse assessed as disease cure from parasite infection at 80 mg/kg, sc administered 72 hrs after infection; assay type: functional, organism-based; set-up: dose 80 mg/kg
Plasmodium gallinaceum [4] = experiment: Antimalarial activity against sporozoite-induced Plasmodium gallinaceum infected in white leghorn chicken assessed as disease cure from parasite infection at 480 mg/kg, sc administered 72 hrs after infection; assay type: functional, organism-based; set-up: dose 480 mg/kg
Plasmodium berghei [5] = experiment: Antimalarial activity against Plasmodium berghei infected in mouse assessed as increase in mean survival days of host at 40 mg/kg, sc administered 72 hrs after infection relative to control; assay type: functional; conditions: route subcutaneous
Escherichia coli = experiment: Antibacterial activity against Escherichia coli Vogel by gradient plate test; assay type: functional
Plasmodium gallinaceum [6] = experiment: Antimalarial activity against trophozoite-induced Plasmodium gallinaceum infected in white leghorn chicken assessed as increase in mean survival days of host at 0.63 mg/kg, sc administered 72 hrs after infection relative to control; assay type: functional; conditions: route subcutaneous
Staphylococcus aureus [7] = experiment: Antibacterial activity against drug-resistant Staphylococcus aureus S18713 by gradient plate test; assay type: functional
Plasmodium berghei [8] = experiment: Antimalarial activity against Plasmodium berghei infected in mouse assessed as disease cure from parasite infection at 160 mg/kg, sc administered 72 hrs after infection; assay type: functional, organism-based; set-up: dose 160 mg/kg
Plasmodium berghei [9] = experiment: Antimalarial activity against Plasmodium berghei infected in mouse assessed as increase in mean survival days of host at 2.5 mg/kg, sc administered 72 hrs after infection relative to control; assay type: functional; conditions: route subcutaneous
[10] = system: Mycobacterium tuberculosis; experiment: Antibacterial activity against Mycobacterium tuberculosis H37Ra by gradient plate test; assay type: functional
Plasmodium gallinaceum [11] = experiment: Antimalarial activity against sporozoite-induced Plasmodium gallinaceum infected in white leghorn chicken assessed as disease cure from parasite infection at 30 mg/kg, sc administered 72 hrs after infection; assay type: functional, organism-based; set-up: dose 30 mg/kg
Plasmodium berghei [12] = experiment: Antimalarial activity against Plasmodium berghei infected in mouse assessed as increase in mean survival days of host at 20 mg/kg, sc administered 72 hrs after infection relative to control; assay type: functional; conditions: route subcutaneous
Plasmodium berghei [13] = experiment: Antimalarial activity against Plasmodium berghei infected in mouse assessed as disease cure from parasite infection at 320 mg/kg, sc administered 72 hrs after infection; assay type: functional, organism-based; set-up: dose 320 mg/kg
Staphylococcus aureus [14] = experiment: Antibacterial activity against Staphylococcus aureus UC-96 by gradient plate test; assay type: functional
Plasmodium gallinaceum [15] = experiment: Antimalarial activity against sporozoite-induced Plasmodium gallinaceum infected in white leghorn chicken assessed as increase in mean survival days of host at 120 mg/kg, sc administered 72 hrs after infection relative to control; assay type: functional; conditions: route subcutaneous
Plasmodium berghei [16] = experiment: Antimalarial activity against Plasmodium berghei infected in mouse assessed as increase in mean survival days of host at 10 mg/kg, sc administered 72 hrs after infection relative to control; assay type: functional; conditions: route subcutaneous
Plasmodium gallinaceum [17] = experiment: Antimalarial activity against sporozoite-induced Plasmodium gallinaceum infected in white leghorn chicken assessed as increase in mean survival days of host at 60 mg/kg, sc administered 72 hrs after infection relative to control; assay type: functional; conditions: route subcutaneous
Plasmodium berghei [18] = experiment: Antimalarial activity against Plasmodium berghei infected in mouse assessed as increase in mean survival days of host at 5 mg/kg, sc administered 72 hrs after infection relative to control; assay type: functional; conditions: route subcutaneous
Plasmodium gallinaceum [19] = experiment: Antimalarial activity against sporozoite-induced Plasmodium gallinaceum infected in white leghorn chicken assessed as increase in mean survival days of host at 15 mg/kg, sc administered 72 hrs after infection relative to control; assay type: functional; conditions: route subcutaneous
Plasmodium gallinaceum [20] = experiment: Antimalarial activity against trophozoite-induced Plasmodium gallinaceum infected in white leghorn chicken assessed as increase in mean survival days of host at 2.5 mg/kg, sc administered 72 hrs after infection relative to control; assay type: functional; conditions: route subcutaneous
Shigella sonnei = experiment: Antibacterial activity against Shigella sonnei C-10 by gradient plate test; assay type: functional
Plasmodium berghei [21] = experiment: Antimalarial activity against Plasmodium berghei infected in mouse assessed as increase in mean survival days of host at 1.25 mg/kg, sc administered 72 hrs after infection relative to control; assay type: functional; conditions: route subcutaneous
Plasmodium gallinaceum [22] = experiment: Antimalarial activity against sporozoite-induced Plasmodium gallinaceum infected in white leghorn chicken assessed as increase in mean survival days of host at 30 mg/kg, sc administered 72 hrs after infection relative to control; assay type: functional; conditions: route subcutaneous
Pseudomonas aeruginosa = experiment: Antibacterial activity against Pseudomonas aeruginosa 28 by gradient plate test; assay type: functional
Plasmodium berghei [23] = experiment: Antimalarial activity against Plasmodium berghei infected in mouse assessed as disease cure from parasite infection at 640 mg/kg, sc administered 72 hrs after infection; assay type: functional, organism-based; set-up: dose 640 mg/kg
Plasmodium gallinaceum [24] = experiment: Antimalarial activity against trophozoite-induced Plasmodium gallinaceum infected in white leghorn chicken assessed as increase in mean survival days of host at 1.25 mg/kg, sc administered 72 hrs after infection relative to control; assay type: functional; conditions: route subcutaneous
Plasmodium gallinaceum [25] = experiment: Antimalarial activity against sporozoite-induced Plasmodium gallinaceum infected in white leghorn chicken assessed as disease cure from parasite infection at 240 mg/kg, sc administered 72 hrs after infection; assay type: functional, organism-based; set-up: dose 240 mg/kg
Plasmodium gallinaceum [26] = experiment: Antimalarial activity against trophozoite-induced Plasmodium gallinaceum infected in white leghorn chicken assessed as increase in mean survival days of host at 5 mg/kg, sc administered 72 hrs after infection relative to control; assay type: functional; conditions: route subcutaneous
Plasmodium gallinaceum [27] = experiment: Antimalarial activity against sporozoite-induced Plasmodium gallinaceum infected in white leghorn chicken assessed as disease cure from parasite infection at 120 mg/kg, sc administered 72 hrs after infection; assay type: functional, organism-based; set-up: dose 120 mg/kg
Enterococcus faecalis = experiment: Antibacterial activity against Streptococcus faecalis MGH-2 by gradient plate test; assay type: functional
Plasmodium berghei [28] = experiment: Antimalarial activity against Plasmodium berghei infected in mouse assessed as disease cure from parasite infection at 40 mg/kg, sc administered 72 hrs after infection; assay type: functional, organism-based; set-up: dose 40 mg/kg
Plasmodium gallinaceum [29] = experiment: Antimalarial activity against trophozoite-induced Plasmodium gallinaceum infected in white leghorn chicken assessed as increase in mean survival days of host at 10 mg/kg, sc administered 72 hrs after infection relative to control; assay type: functional; conditions: route subcutaneous
Plasmodium gallinaceum [30] = experiment: Antimalarial activity against sporozoite-induced Plasmodium gallinaceum infected in white leghorn chicken assessed as disease cure from parasite infection at 320 mg/kg, sc administered 72 hrs after infection; assay type: functional, organism-based; set-up: dose 320 mg/kg
Mus musculus [31] = experiment: Toxicity in Plasmodium berghei infected mouse assessed as mortality at 640 mg/kg, sc administered 72 hrs after infection measured after 2 to 5 days; assay type: organism-based; set-up: dose 640 mg/kg, route subcutaneous; conditions: in vivo
Mus musculus [32] = experiment: Toxicity in Plasmodium berghei infected mouse assessed as mortality at 320 mg/kg, sc administered 72 hrs after infection measured after 2 to 5 days; assay type: organism-based; set-up: dose 320 mg/kg, route subcutaneous; conditions: in vivo
Plasmodium gallinaceum [33] = experiment: Antimalarial activity against sporozoite-induced Plasmodium gallinaceum infected in white leghorn chicken assessed as disease cure from parasite infection at 80 mg/kg, sc administered 72 hrs after infection; assay type: functional, organism-based; set-up: dose 80 mg/kg
Plasmodium berghei [34] = experiment: Ratio of quinine hydrochloride SD90 to compound SD90 for trophozoite-induced Plasmodium berghei infected in mouse assessed as daily dose required to suppression of 90% parasite infection administered with diet for 6 days; assay type: functional
Plasmodium gallinaceum [35] = experiment: Antimalarial activity against sporozoite-induced Plasmodium gallinaceum infected in white leghorn chicken assessed as disease cure from parasite infection at 10 mg/kg, sc administered 72 hrs after infection; assay type: functional, organism-based; set-up: dose 10 mg/kg
Gallus gallus = experiment: Toxicity in sporozoite-induced Plasmodium gallinaceum infected white leghorn chicken assessed as mortality at 320 mg/kg, sc administered 72 hrs after infection measured up to 6 days; assay type: organism-based; set-up: dose 320 mg/kg, route subcutaneous; conditions: in vivo
Plasmodium gallinaceum [36] = experiment: Antimalarial activity against sporozoite-induced Plasmodium gallinaceum infected in white leghorn chicken assessed as disease cure from parasite infection at 20 mg/kg, sc administered 72 hrs after infection; assay type: functional, organism-based; set-up: dose 20 mg/kg
Plasmodium gallinaceum [37] = experiment: Antimalarial activity against sporozoite-induced Plasmodium gallinaceum infected in white leghorn chicken assessed as disease cure from parasite infection at 160 mg/kg, sc administered 72 hrs after infection; assay type: functional, organism-based; set-up: dose 160 mg/kg
Plasmodium berghei [38] = experiment: Antimalarial activity against trophozoite-induced Plasmodium berghei infected in mouse assessed as daily dose required to suppression of 90% parasite infection administered with diet for 6 days; assay type: functional
Plasmodium gallinaceum [39] = experiment: Antimalarial activity against sporozoite-induced Plasmodium gallinaceum infected in white leghorn chicken assessed as disease cure from parasite infection at 40 mg/kg, sc administered 72 hrs after infection; assay type: functional, organism-based; set-up: dose 40 mg/kg

How did the MST (Plasmodium gallinaceum [1]) turn out when `Nc1nc(N)c2cc(Sc3cccc(-c4ccccc4)c3)ccc2n1` was run?
Its MST is 0 days.

What about the Activity (Plasmodium gallinaceum [2]) of the same molecule?
Its Activity is “Active”.

And the Activity (Plasmodium berghei [3])?
Its Activity is “Active”.

What about the Activity (Plasmodium gallinaceum [4]) of the same molecule?
Its Activity is “Active”.

What about the MST (Plasmodium berghei [5]) of the same molecule?
The MST was 17.4 days.

And the MIC (Escherichia coli)?
The MIC was 10 µg/mL (≈ 29 µM).

What about the MST (Plasmodium gallinaceum [6]) of the same molecule?
Its MST is 0 days.

What about the MIC (Staphylococcus aureus [7]) of the same molecule?
Its MIC is under 0.25 µg/mL.

And the Activity (Plasmodium berghei [8])?
Its Activity is “Active”.

What about the MST (Plasmodium berghei [9]) of the same molecule?
The MST was 5.3 days.

And the MIC [10]?
Its MIC is over 25 µg/mL.

What about the Activity (Plasmodium gallinaceum [11]) of the same molecule?
The Activity was “Active”.

What about the MST (Plasmodium berghei [12]) of the same molecule?
The MST was 11.1 days.

What about the Activity (Plasmodium berghei [13]) of the same molecule?
The Activity was “Active”.

And the MIC (Staphylococcus aureus [14])?
The MIC was under 0.25 µg/mL.

And the MST (Plasmodium gallinaceum [15])?
Its MST is 0.3 days.

And the MST (Plasmodium berghei [16])?
The MST was 8.1 days.

What about the MST (Plasmodium gallinaceum [17]) of the same molecule?
Its MST is 0.3 days.

What about the MST (Plasmodium berghei [18]) of the same molecule?
The MST was 7.9 days.

What about the MST (Plasmodium gallinaceum [19]) of the same molecule?
Its MST is 0.7 days.

What about the MST (Plasmodium gallinaceum [20]) of the same molecule?
The MST was 0 days.

What about the MIC (Shigella sonnei) of the same molecule?
Its MIC is over 25 µg/mL.

What about the MST (Plasmodium berghei [21]) of the same molecule?
Its MST is 4.5 days.

What about the MST (Plasmodium gallinaceum [22]) of the same molecule?
Its MST is 1 days.

What about the MIC (Pseudomonas aeruginosa) of the same molecule?
The MIC was over 25 µg/mL.

And the Activity (Plasmodium berghei [23])?
Its Activity is “Active”.

And the MST (Plasmodium gallinaceum [24])?
The MST was 0 days.

And the Activity (Plasmodium gallinaceum [25])?
Its Activity is “Active”.

What about the MST (Plasmodium gallinaceum [26]) of the same molecule?
Its MST is 0 days.

What about the Activity (Plasmodium gallinaceum [27]) of the same molecule?
The Activity was “Active”.

And the MIC (Enterococcus faecalis)?
The MIC was under 0.25 µg/mL.

And the Activity (Plasmodium berghei [28])?
Its Activity is “Active”.

And the MST (Plasmodium gallinaceum [29])?
The MST was 0 days.

`CCc1nc(N)nc(N)c1-c1ccc(Cl)cc1` [PYRIMETHAMINE] was tested. Which Activity (Plasmodium berghei [3]) did it give?
The Activity was “Active”.

What about the Activity (Plasmodium berghei [8]) of the same molecule?
Its Activity is “Active”.

And the MST (Plasmodium berghei [9])?
The MST was 4.7 days.

And the Activity (Plasmodium gallinaceum [30])?
Its Activity is “Active”.

And the MST (Plasmodium berghei [12])?
Its MST is 7.7 days.

And the Activity (Mus musculus [31])?
Its Activity is “Toxic”.

And the Activity (Plasmodium berghei [13])?
Its Activity is “Active”.

And the MST (Plasmodium berghei [16])?
The MST was 6.1 days.

And the MST (Plasmodium berghei [18])?
The MST was 5.3 days.

And the Activity (Mus musculus [32])?
Its Activity is “Toxic”.

What about the Activity (Plasmodium gallinaceum [33]) of the same molecule?
The Activity was “Active”.

And the Ratio (Plasmodium berghei [34])?
The Ratio was 270.

What about the Activity (Plasmodium gallinaceum [35]) of the same molecule?
Its Activity is “Active”.

What about the Activity (Gallus gallus) of the same molecule?
The Activity was “Toxic”.

What about the MST (Plasmodium berghei [21]) of the same molecule?
The MST was 3.1 days.

What about the Activity (Plasmodium gallinaceum [36]) of the same molecule?
The Activity was “Active”.

What about the Activity (Plasmodium berghei [23]) of the same molecule?
The Activity was “Active”.

What about the Activity (Plasmodium gallinaceum [37]) of the same molecule?
The Activity was “Active”.

What about the SD90 (Plasmodium berghei [38]) of the same molecule?
The SD90 was 0.28 mg/kg/day.

What about the Activity (Plasmodium gallinaceum [39]) of the same molecule?
Its Activity is “Active”.

What about the Activity (Plasmodium berghei [28]) of the same molecule?
The Activity was “Active”.
